Results from patent US11154536B2, “Pyrazoline-derived compound and its use in a weekly dosage regime against inflammation and pain derived from degenerative joint disease in mammals” (ECUPHAR N.V., priority 2014, dated 2021).

Key:
[1] = system: naturally occurring osteoarthritis; test: Example 3: randomized, blinded multi-centre clinical trial in dogs with naturally occurring osteoarthritis (Clinical Sum Score); format: in vivo, dog; conditions: loading dose 4 mg/kg then 2 mg/kg weekly; for P of reduction in CSS compared to the Placebo group: tablets
Description: One study (headed as example 3) has been performed to evaluate the efficacy of E-6087 in dogs with naturally occurring osteoarthritis under real field conditions. E-6087 was administered in tablets.
For a dog to be included in the study, the following criteria must be fulfilled: • 1. Owner's consent obtained prior to the start of any study activities. • 2. Age ≥12 months. • 3. Body weight ≥5 kg. • 4. Clinical signs of osteoarthritis for one (with the exception of the spine including spinal joints, cranium, and vertebral column) or more joints for at least 3 weeks. • 5. Confirmation by radiographic evidence of the presence of osteoarthritis in the dog. […] Minimum Clinical Sum Score (CSS) ≥6. If more than one joint was affected by OA, the most severely affected joint (with the exception of the spine) was assessed subsequently for efficacy.
Once included, dogs were randomly assigned to a treatment group. A practitioner was in charge of administering either a Placebo or E-6087 under two different dosage regimes to animals, while another one was in charge of blindly evaluating the progression of clinical signs during a 42-day follow-up.
A Clinical Sum Score (CSS) was used for the assessment of pain and lameness at several time points during the follow-up, including clinical assessments in this order for posture, lameness at walk, lameness at rot and pain at palpation/manipulation. The CSS was the sum of the individual scores.
This study was designed to evaluate the effectiveness of E-6087 under real field conditions. E-6087 was administered at a loading dose of 4 mg/kg followed by weekly maintenance doses of 2 mg/kg The study was designed as a controlled, randomized, blinded, multi-centre clinical trial.
A total of 60 osteoarthritic dogs were included in the E-6087 group and 60 dogs in the Placebo group. All dogs underwent a follow-up period of 42 days, with clinical evaluations of lameness and pain on days 0, 7, 14, 28 and 42. A Clinical Sum Score (CSS) was calculated for the lameness and pain parameters at each time point.

[2] = system: urate crystal induced acute arthritis in the stifle (femorotibial) joint; test: Example 2: urate crystal acute arthritis model in dogs, loading dose plus weekly maintenance doses of E-6087; format: in vivo, dog
Source text: (§1) The experimental model used in both studies was the same and it consists in the induction of an acute arthritis through the inoculation of an urate crystal suspension in the stifle (femorotibial) joint of dogs. […] Partial or total inhibition of this reaction at a given time point after treatment administration is attributable to its pharmacological effect.
(§2) The reversible urate crystal arthritis model used in next examples has been previously described in the literature [Toutain P. L. et al. J. Vet. Pharmacol. Therap. 24, 43-55, 2001].
(§3) A sodium urate crystal suspension at a concentration of 10 mg·mL-1 was prepared as follows: • Uric acid sodium salt (Sigma) was weighed in a 100 mL graduated flask. • 0.9% NaCl solution was added to a final volume of 100 mL. • The suspension was mixed at room temperature by vortexing for approximately 5 min, by magnetic stirring for 5 min and was then sonicated for approximately 1 h. • The suspension was distributed in 1.5 mL vials and then autoclaved for 2 h at 120° C. • Finally the suspension was mixed by vortexing for 5 min, and sonicated for approximately 1 h.
(§4) The intra-articular injections were performed under general anaesthesia using Propovet multidose at a propofol dose of 6.5 mg.kg-1 by intravenous route without premedication. This induction medication was intended to result in a rapid onset anaesthesia with duration of about 10 minutes of unconsciousness and full recovery within approximately 30 minutes. For most of the dogs, Propovet multidose (half dose) was re-injected to maintain appropriate anaesthesia.
(§5) All urate crystal injections were introduced in the stifle (femorotibial) joint. The intra-articular injection was performed under aseptic conditions using a 30 mm long and 1 mm diameter sterile needle and a 2.5 mL syringe. The joint was checked for successful joint puncture, by synovial aspiration. One millilitre of urate crystal suspension was used for each intra-articular injection.
(§6) The duration of the induced inflammatory process was expected to be approximately 16 to 24 h and the average time of maximum lameness in untreated animals 2 to 3 hours after induction.
(§7) To assess the anti-inflammatory and analgesic effect of the test item, two clinical signs of arthritis were investigated: lameness and pain, respectively. Their intensity was determined using the following scoring systems:
This study was designed to evaluate the effectiveness of two different treatment regimes for E-6087. In both cases it was administered a loading dose, followed by a weekly maintenance dose. […]
According to the institutional ethics committee's recommendations, the first and third inoculations were performed in the right stifle while the second inoculation was performed in the left stifle. On each day of arthritis induction, the anti-inflammatory and analgesic efficacy of treatments was assessed at different time points (just before the inoculation, and 0.5, 1, 2, 3, 4, 6, 9 and 12 hours later).
Two clinical signs of arthritis were assessed by using a scoring system at each time point: visual lameness (whilst standing and walking) and pain at (inoculated stifle) palpation. A combined visual lameness score, determined as the sum of the standing and walking lameness scores, was calculated and finally used for efficacy evaluation. The median, minimal and maximal values for this parameter were determined for each group at each time point. […]

[3] = Example 1: blood/plasma concentrations of E-6087 in treated dogs; format: in vivo, dog
Description: (§8) According to the institutional ethics committee's recommendations, the first and third inoculations were done in the right stifle while the second and fourth inoculations were done in the left stifle. On each day of arthritis induction, the anti-inflammatory and analgesic efficacy of treatments was assessed at different time points (just before the inoculation, and 0.5, 1, 2, 3, 4, 6, 9 and 12 hours later). Two clinical signs of arthritis were assessed by using a scoring system at each time point: visual lameness (whilst standing and walking) and pain at (inoculated stifle) palpation. The median, minimal and maximal values for this parameter were determined for each group at each time point. Blood sampling was performed at different time points during the study in dogs of groups I and II in order to determine blood concentrations of E-6087.

[4] = system: urate crystal induced acute arthritis in the stifle (femorotibial) joint; test: Example 1: reversible urate crystal acute arthritis model in dog, E-6087 p.o. 4 mg/kg on D0 and D12; format: in vivo
Source text: as §1, §2, §3, §4, §5, §6, §7
This study was designed to determine whether the blood levels of E-6087 achieved after one single oral dose of E-6087 at 4 mg/kg in dog, do have some short and/or long-term antiinflammatory and analgesic effects. In addition, a second dose of E-6087 at 4 mg/kg was administered to evaluate the eventual effect derived from the accumulation of the molecule in blood.
The study was performed with seven male Beagle dogs randomly allocated to 3 groups.
During the study, the arthritis induction model was implemented on four occasions to each dog: • In dogs of Group I, on Days 0*, 7, 14** and 21. • In dogs of Group II, on Days 2**, 7, 14** and 21. • In dogs of Group III, on […].
as §8

[5] = induction on day D7 after the first 4 mg/kg p.o. dose
[6] = induction two hours after the first 4 mg/kg p.o. dose (Day 0)
[7] = inductions on D14 and D21, after the second 4 mg/kg dose on D12

For NS(=O)(=O)c1ccc(N2N=C(C(F)(F)F)CC2c2ccc(F)cc2F)cc1 (racemic) [E-6087], the “P of reduction in CSS compared to the Placebo group” value ([1]; day 28, statistically significant) was less than 0.05, the “P of reduction in CSS compared to the Placebo group” value ([1]; day 42, highly significant) was less than 0.01 and the “Mean Clinical Sum Score (CSS)” value ([1]; dropped under the threshold between day 7 and day 14) was less than 6. The “Inflammatory/painful reaction after arthritis induction” value (shortened to “Inflammatory/painful reaction”) ([2]; Group C, treatment regimen II (8 mg/kg loading, 4 mg/kg weekly), from Day 9 onwards) was “very mild reaction”, the “Inflammatory/painful reaction” value ([2]; Group C, treatment regimen II, induction on Day 0, two hours after the 8 mg/kg loading dose) was “severe inflammatory/painful reaction” and the “Inflammatory/painful reaction” value ([2]; Groups A and B, treatment regimen I (4 mg/kg Days 0 and 1, then 4 mg/kg weekly), inductions on Days 2, 4 and 9) was “mild inflammatory/painful reactions”. The “Inflammatory/painful reaction” value ([2]; Groups A and B, treatment regimen I, inductions on Days 14, 23 and 28) was “none (or very mild) reactions”, the “Adverse reactions related to the administration” value ([2]; Groups A, B and C, throughout the study) was “No adverse reactions” and the “Plasma levels after the second dose” value ([3]; 4 mg/kg p.o. on D0 and D12, blood samples of treated dogs) was “increase in plasma levels”. The “Blood levels 48 hours after administration” value ([3]; 4 mg/kg p.o., 48 hours after administration) was “significant blood levels”, the “Adverse reactions related to the administration” value ([4]; 4 mg/kg p.o. on D0 and D12, throughout the 28-day study) was “No adverse reactions” and the “Persistence of anti-inflammatory/analgesic effect” value ([4]; after the second dose of 4 mg/kg (12 days after the first dose)) was “persisted at least during nine days”. For the same molecule, the “Lameness assessment (control of induced lameness)” value (“Lameness assessment” below) [4, 5] was “slightly controlled”, the “Pain assessment (control of induced pain at palpation)” value (shortened to “Pain assessment”) [4, 5] was “slightly controlled” and the “Lameness assessment” value [4, 6] was “not controlled at all”. For the same molecule, the “Pain assessment” value [4, 6] was “not controlled at all”, the “Lameness assessment” value [4, 7] was “absolutely controlled” and the “Pain assessment” value [4, 7] was “absolutely controlled”.
